System: K98450-129-R-PDC multicell spheroids, viability
Assay: Anticancer human tumor K98450-129-R-PDC patient-derived colon adenocarcinoma cell line growth inhibition [PI3K]
Conditions: for IC50: curve of first compound; for viability, T/C: stronger effect = lower value
Method in brief: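 Multi-cell spheroids combine tumor cells with HUVEC and human MSCs, treated with targeted agents alone or with inavolisib, alpelisib, duvelisib or copanlisib. Concentrations fall in half-log steps from at or near clinical Cmax, or from 10 microM where Cmax is unknown; viability read-out.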

[1] = second compound 0.0316 µM, first compound 0.000316 µM
[2] = second compound 0.0316 µM, first compound 0.001 µM
[3] = second compound 0.0316 µM, first compound 0.00316 µM
[4] = second compound 0.0316 µM, first compound 0.01 µM
[5] = second compound 0.0316 µM, first compound 0.0316 µM
[6] = second compound 0.0316 µM, first compound 0.1 µM
[7] = second compound 0.1 µM, first compound 0.000316 µM
[8] = second compound 0.1 µM, first compound 0.001 µM
[9] = second compound 0.1 µM, first compound 0.00316 µM
[10] = second compound 0.1 µM, first compound 0.01 µM
[11] = second compound 0.1 µM, first compound 0.0316 µM
[12] = second compound 0.1 µM, first compound 0.1 µM
[13] = second compound 0.316 µM, first compound 0.000316 µM
[14] = second compound 0.316 µM, first compound 0.001 µM
[15] = second compound 0.316 µM, first compound 0.00316 µM
[16] = second compound 0.316 µM, first compound 0.01 µM
[17] = second compound 0.316 µM, first compound 0.0316 µM
[18] = second compound 0.316 µM, first compound 0.1 µM
[19] = second compound 1 µM, first compound 0.000316 µM
[20] = second compound 1 µM, first compound 0.001 µM
[21] = second compound 1 µM, first compound 0.00316 µM
[22] = second compound 1 µM, first compound 0.01 µM
[23] = second compound 1 µM, first compound 0.0316 µM
[24] = second compound 1 µM, first compound 0.1 µM
[25] = second compound 3.16 µM, first compound 0.000316 µM
[26] = second compound 3.16 µM, first compound 0.001 µM
[27] = second compound 3.16 µM, first compound 0.00316 µM
[28] = second compound 3.16 µM, first compound 0.01 µM
[29] = second compound 3.16 µM, first compound 0.0316 µM
[30] = second compound 3.16 µM, first compound 0.1 µM
[31] = second compound 10 µM, first compound 0.000316 µM
[32] = second compound 10 µM, first compound 0.001 µM
[33] = second compound 10 µM, first compound 0.00316 µM
[34] = second compound 10 µM, first compound 0.01 µM
[35] = second compound 10 µM, first compound 0.0316 µM
[36] = second compound 10 µM, first compound 0.1 µM
[37] = second compound 0.0316 µM, first compound 0.316 µM
[38] = second compound 0.0316 µM, first compound 1 µM
[39] = second compound 0.0316 µM, first compound 3.16 µM
[40] = second compound 0.0316 µM, first compound 10 µM
[41] = second compound 0.1 µM, first compound 0.316 µM
[42] = second compound 0.1 µM, first compound 1 µM
[43] = second compound 0.1 µM, first compound 3.16 µM
[44] = second compound 0.1 µM, first compound 10 µM
[45] = second compound 0.316 µM, first compound 0.316 µM
[46] = second compound 0.316 µM, first compound 1 µM
[47] = second compound 0.316 µM, first compound 3.16 µM
[48] = second compound 0.316 µM, first compound 10 µM
[49] = second compound 1 µM, first compound 0.316 µM
[50] = second compound 1 µM, first compound 1 µM
[51] = second compound 1 µM, first compound 3.16 µM
[52] = second compound 1 µM, first compound 10 µM
[53] = second compound 3.16 µM, first compound 0.316 µM
[54] = second compound 3.16 µM, first compound 1 µM
[55] = second compound 3.16 µM, first compound 3.16 µM
[56] = second compound 3.16 µM, first compound 10 µM
[57] = second compound 10 µM, first compound 0.316 µM
[58] = second compound 10 µM, first compound 1 µM
[59] = second compound 10 µM, first compound 3.16 µM
[60] = second compound 10 µM, first compound 10 µM
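Also: spheroids exposed to agents for seven days before read-out.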

CC(=O)c1c(C)c2cnc(Nc3ccc(N4CCNCC4)cn3)nc2n(C2CCCC2)c1=O + CC(Nc1ncnc2nc[nH]c12)c1cc2cccc(Cl)c2c(=O)n1-c1ccccc1
IC50 (second compound 0.0316 µM): > 0.1 µM
IC50 (second compound 0.1 µM): > 0.1 µM
IC50 (second compound 0.316 µM): > 0.1 µM
IC50 (second compound 1 µM): > 0.1 µM
IC50 (second compound 3.16 µM): > 0.1 µM
IC50 (second compound 10 µM): > 0.1 µM
viability, T/C [1]: 105%
viability, T/C [2]: 100%
viability, T/C [3]: 110%
viability, T/C [4]: 99%
viability, T/C [5]: 100%
viability, T/C [6]: 86.2%
viability, T/C [7]: 109%
viability, T/C [8]: 94.8%
viability, T/C [9]: 94.2%
viability, T/C [10]: 96.1%
viability, T/C [11]: 93.1%
viability, T/C [12]: 99.3%
viability, T/C [13]: 107%
viability, T/C [14]: 106%
viability, T/C [15]: 93.7%
viability, T/C [16]: 94.8%
viability, T/C [17]: 101%
viability, T/C [18]: 81.6%
viability, T/C [19]: 102%
viability, T/C [20]: 92.3%
viability, T/C [21]: 90.2%
viability, T/C [22]: 101%
viability, T/C [23]: 101%
viability, T/C [24]: 85.8%
viability, T/C [25]: 105%
viability, T/C [26]: 97.2%
viability, T/C [27]: 87.6%
viability, T/C [28]: 94.5%
viability, T/C [29]: 96.9%
viability, T/C [30]: 89.9%
viability, T/C [31]: 92.4%
viability, T/C [32]: 96.7%
viability, T/C [33]: 74.5%
viability, T/C [34]: 82.2%
viability, T/C [35]: 103%
viability, T/C [36]: 72.2%

CC(C)n1nc(-c2ccc3oc(N)nc3c2)c2c(N)ncnc21 + CC(Nc1ncnc2nc[nH]c12)c1cc2cccc(Cl)c2c(=O)n1-c1ccccc1
IC50 (second compound 0.0316 µM): > 0.1 µM
IC50 (second compound 0.1 µM): > 0.1 µM
IC50 (second compound 0.316 µM): > 0.1 µM
IC50 (second compound 1 µM): > 0.1 µM
IC50 (second compound 3.16 µM): > 0.1 µM
IC50 (second compound 10 µM): > 0.1 µM
viability, T/C [1]: 106%
viability, T/C [2]: 91.5%
viability, T/C [3]: 93.9%
viability, T/C [4]: 79%
viability, T/C [5]: 84.6%
viability, T/C [6]: 84.6%
viability, T/C [7]: 126%
viability, T/C [8]: 96.9%
viability, T/C [9]: 106%
viability, T/C [10]: 111%
viability, T/C [11]: 81.1%
viability, T/C [12]: 72.8%
viability, T/C [13]: 108%
viability, T/C [14]: 134%
viability, T/C [15]: 81.3%
viability, T/C [16]: 95.4%
viability, T/C [17]: 92.7%
viability, T/C [18]: 71.1%
viability, T/C [19]: 101%
viability, T/C [20]: 111%
viability, T/C [21]: 84.3%
viability, T/C [22]: 97.6%
viability, T/C [23]: 92.1%
viability, T/C [24]: 71.3%
viability, T/C [25]: 110%
viability, T/C [26]: 97.4%
viability, T/C [27]: 103%
viability, T/C [28]: 91.7%
viability, T/C [29]: 90.4%
viability, T/C [30]: 67.3%
viability, T/C [31]: 92.6%
viability, T/C [32]: 84.2%
viability, T/C [33]: 87.1%
viability, T/C [34]: 88.5%
viability, T/C [35]: 87.6%
viability, T/C [36]: 78.2%

CC1(C)CCC(CN2CCN(c3ccc(C(=O)NS(=O)(=O)c4ccc(NCC5CCOCC5)c([N+](=O)[O-])c4)c(Oc4cnc5[nH]ccc5c4)c3)CC2)=C(c2ccc(Cl)cc2)C1 + CC(Nc1ncnc2nc[nH]c12)c1cc2cccc(Cl)c2c(=O)n1-c1ccccc1
IC50 (second compound 0.0316 µM): 5.26 µM
IC50 (second compound 0.1 µM): 5.65 µM
IC50 (second compound 0.316 µM): 5.38 µM
IC50 (second compound 1 µM): 5.29 µM
IC50 (second compound 3.16 µM): 5.48 µM
IC50 (second compound 10 µM): 5.13 µM
viability, T/C [5]: 96.2%
viability, T/C [6]: 94.7%
viability, T/C [37]: 96.2%
viability, T/C [38]: 118%
viability, T/C [39]: 84.8%
viability, T/C [40]: 6.25%
viability, T/C [11]: 100%
viability, T/C [12]: 104%
viability, T/C [41]: 105%
viability, T/C [42]: 100%
viability, T/C [43]: 97.4%
viability, T/C [44]: 3.46%
viability, T/C [17]: 135%
viability, T/C [18]: 104%
viability, T/C [45]: 94.9%
viability, T/C [46]: 98.6%
viability, T/C [47]: 94.4%
viability, T/C [48]: 3.48%
viability, T/C [23]: 87.8%
viability, T/C [24]: 116%
viability, T/C [49]: 89%
viability, T/C [50]: 88.5%
viability, T/C [51]: 87.5%
viability, T/C [52]: 3.81%
viability, T/C [29]: 85.8%
viability, T/C [30]: 105%
viability, T/C [53]: 90.4%
viability, T/C [54]: 86.1%
viability, T/C [55]: 95.8%
viability, T/C [56]: 3.31%
viability, T/C [35]: 86.4%
viability, T/C [36]: 87.6%
viability, T/C [57]: 82.9%
viability, T/C [58]: 75.3%
viability, T/C [59]: 88.1%
viability, T/C [60]: 3.12%

CCCS(=O)(=O)Nc1ccc(F)c(C(=O)c2c[nH]c3ncc(-c4ccc(Cl)cc4)cc23)c1F + CC(Nc1ncnc2nc[nH]c12)c1cc2cccc(Cl)c2c(=O)n1-c1ccccc1
IC50 (second compound 0.0316 µM): 5.17 µM
IC50 (second compound 0.1 µM): 6.03 µM
IC50 (second compound 0.316 µM): 5.29 µM
IC50 (second compound 1 µM): 5.51 µM
IC50 (second compound 3.16 µM): 5.87 µM
IC50 (second compound 10 µM): 5.53 µM
viability, T/C [5]: 118%
viability, T/C [6]: 97.9%
viability, T/C [37]: 106%
viability, T/C [38]: 113%
viability, T/C [39]: 85.5%
viability, T/C [40]: 2.37%
viability, T/C [11]: 127%
viability, T/C [12]: 94.6%
viability, T/C [41]: 121%
viability, T/C [42]: 112%
viability, T/C [43]: 109%
viability, T/C [44]: 3.82%
viability, T/C [17]: 96.8%
viability, T/C [18]: 97.2%
viability, T/C [45]: 101%
viability, T/C [46]: 111%
viability, T/C [47]: 89%
viability, T/C [48]: 1.77%
viability, T/C [23]: 97%
viability, T/C [24]: 104%
viability, T/C [49]: 101%
viability, T/C [50]: 120%
viability, T/C [51]: 93.7%
viability, T/C [52]: 2.88%
viability, T/C [29]: 97.1%
viability, T/C [30]: 102%
viability, T/C [53]: 95.3%
viability, T/C [54]: 112%
viability, T/C [55]: 114%
viability, T/C [56]: 3.24%
viability, T/C [35]: 96.2%
viability, T/C [36]: 102%
viability, T/C [57]: 105%
viability, T/C [58]: 102%
viability, T/C [59]: 94.2%
viability, T/C [60]: 3.07%

C[C@@H](NC(=O)c1ncnc(N)c1Cl)c1ncc(C(=O)Nc2cc(C(F)(F)F)c(Cl)cn2)s1 + CC(Nc1ncnc2nc[nH]c12)c1cc2cccc(Cl)c2c(=O)n1-c1ccccc1
IC50 (second compound 0.0316 µM): > 10 µM
IC50 (second compound 0.1 µM): > 10 µM
IC50 (second compound 0.316 µM): > 10 µM
IC50 (second compound 1 µM): > 10 µM
IC50 (second compound 3.16 µM): > 10 µM
IC50 (second compound 10 µM): > 10 µM
viability, T/C [5]: 113%
viability, T/C [6]: 108%
viability, T/C [37]: 117%
viability, T/C [38]: 124%
viability, T/C [39]: 109%
viability, T/C [40]: 104%
viability, T/C [11]: 123%
viability, T/C [12]: 106%
viability, T/C [41]: 119%
viability, T/C [42]: 108%
viability, T/C [43]: 123%
viability, T/C [44]: 96%
viability, T/C [17]: 107%
viability, T/C [18]: 118%
viability, T/C [45]: 103%
viability, T/C [46]: 108%
viability, T/C [47]: 126%
viability, T/C [48]: 96.1%
viability, T/C [23]: 115%
viability, T/C [24]: 106%
viability, T/C [49]: 102%
viability, T/C [50]: 106%
viability, T/C [51]: 126%
viability, T/C [52]: 86.8%
viability, T/C [29]: 92.3%
viability, T/C [30]: 112%
viability, T/C [53]: 95.8%
viability, T/C [54]: 120%
viability, T/C [55]: 123%
viability, T/C [56]: 101%
viability, T/C [35]: 95.5%
viability, T/C [36]: 106%
viability, T/C [57]: 90.9%
viability, T/C [58]: 103%
viability, T/C [59]: 124%
viability, T/C [60]: 78%

Source: PubChem BioAssay AID1963961 (Molecular Pharmacology Branch, DTP, NCI, 2024)
